Experimental findings from the supplement of paper PMC12463676, “Small-molecule dissolution of stress granules by redox modulation benefits ALS models” (Nature Chemical Biology, 2025) are described below.

Compound in one test: NC(=O)CCCCC1CCSS1 [lipoamide]
The test can be described thus: thermal stability z-score vs DMSO; higher = more thermally stabilized by treatment. As to conditions: HeLa, lipoamide concentration 100 µM. On the procedure:
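Cellular thermal proteome profiling in HeLa cells. Cells were treated with 100 µM lipoamide for 1 h, with or without 1 mM arsenate for a further 1 h, then heated to ten temperatures (37-66.3 °C), and soluble protein was quantified by TMT mass spectrometry relative to 0.1% DMSO controls. The thermal stability score (sum of log2 fold changes minus the abundance score) was transformed to a z-score; mean of n = 3 experiments.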

Compound in another test: O=[As]([O-])(O)O.[K+] [potassium arsenate]
The test is described as above. The following applies: HeLa; arsenate concentration 1 mM. The procedure: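 Cellular thermal proteome profiling in HeLa cells treated with 1 mM arsenate for 1 h (DMSO pretreatment), heated to ten temperatures (37-66.3 °C). Soluble protein was quantified by TMT mass spectrometry relative to DMSO controls; the thermal stability score was transformed to a z-score; mean of n = 3 experiments.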

Where [1] appears, read: arsenate co-treatment: 1 mM arsenate 1 h.
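Also: each temperature applied for 3 min, abundance score taken as mean log2 fold change at the two lowest temperatures, z-score obtained by mean subtraction and division by SD.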

UniProt Q99081, sequence (Q99081 whole entry): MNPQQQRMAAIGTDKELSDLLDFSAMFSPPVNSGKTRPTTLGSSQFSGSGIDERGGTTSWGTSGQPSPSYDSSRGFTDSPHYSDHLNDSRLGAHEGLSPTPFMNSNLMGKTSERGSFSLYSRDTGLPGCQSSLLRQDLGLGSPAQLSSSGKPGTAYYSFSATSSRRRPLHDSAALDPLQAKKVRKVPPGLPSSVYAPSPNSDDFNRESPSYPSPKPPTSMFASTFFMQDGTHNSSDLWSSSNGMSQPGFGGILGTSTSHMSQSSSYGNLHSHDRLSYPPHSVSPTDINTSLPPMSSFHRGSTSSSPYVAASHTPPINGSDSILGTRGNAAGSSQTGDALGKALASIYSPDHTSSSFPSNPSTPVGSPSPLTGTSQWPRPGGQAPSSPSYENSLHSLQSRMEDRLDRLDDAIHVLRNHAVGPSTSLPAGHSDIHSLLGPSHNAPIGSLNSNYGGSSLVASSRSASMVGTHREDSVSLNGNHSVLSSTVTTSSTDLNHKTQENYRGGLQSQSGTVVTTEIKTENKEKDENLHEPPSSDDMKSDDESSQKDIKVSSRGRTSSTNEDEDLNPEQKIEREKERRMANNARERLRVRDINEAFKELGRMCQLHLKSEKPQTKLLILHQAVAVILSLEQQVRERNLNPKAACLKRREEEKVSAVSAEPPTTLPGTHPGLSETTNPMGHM
UniProt Q9Y4R8, sequence (Q9Y4R8 whole entry): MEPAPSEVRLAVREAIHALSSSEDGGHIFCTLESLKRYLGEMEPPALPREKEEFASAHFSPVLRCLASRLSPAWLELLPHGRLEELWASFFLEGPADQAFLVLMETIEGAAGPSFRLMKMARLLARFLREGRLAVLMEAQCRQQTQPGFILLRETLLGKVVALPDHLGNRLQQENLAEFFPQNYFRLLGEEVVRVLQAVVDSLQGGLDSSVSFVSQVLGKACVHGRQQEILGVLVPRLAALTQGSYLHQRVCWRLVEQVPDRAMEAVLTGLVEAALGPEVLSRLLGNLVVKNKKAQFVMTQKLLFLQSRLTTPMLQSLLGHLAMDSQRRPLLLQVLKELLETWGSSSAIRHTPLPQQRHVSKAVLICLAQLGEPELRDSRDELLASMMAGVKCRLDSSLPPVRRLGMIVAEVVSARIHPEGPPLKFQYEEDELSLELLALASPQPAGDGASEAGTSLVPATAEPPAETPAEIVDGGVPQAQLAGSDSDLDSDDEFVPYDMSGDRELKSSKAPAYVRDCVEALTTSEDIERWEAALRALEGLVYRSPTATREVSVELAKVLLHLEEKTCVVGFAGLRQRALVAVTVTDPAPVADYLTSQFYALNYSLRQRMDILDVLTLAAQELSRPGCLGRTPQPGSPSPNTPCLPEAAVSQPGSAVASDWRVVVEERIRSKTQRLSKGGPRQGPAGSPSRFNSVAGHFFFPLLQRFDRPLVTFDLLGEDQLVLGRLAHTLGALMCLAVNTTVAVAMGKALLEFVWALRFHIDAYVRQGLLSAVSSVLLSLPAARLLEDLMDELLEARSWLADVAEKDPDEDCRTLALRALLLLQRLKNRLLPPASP
UniProt Q96BS2, sequence (Q96BS2 whole entry): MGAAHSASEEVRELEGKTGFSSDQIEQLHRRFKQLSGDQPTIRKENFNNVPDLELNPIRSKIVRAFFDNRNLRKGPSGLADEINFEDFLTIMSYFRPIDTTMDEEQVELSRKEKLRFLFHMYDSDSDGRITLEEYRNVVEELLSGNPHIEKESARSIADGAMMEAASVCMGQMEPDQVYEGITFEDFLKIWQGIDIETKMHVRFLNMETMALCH
UniProt Q9BTW9, sequence (Q9BTW9 whole entry): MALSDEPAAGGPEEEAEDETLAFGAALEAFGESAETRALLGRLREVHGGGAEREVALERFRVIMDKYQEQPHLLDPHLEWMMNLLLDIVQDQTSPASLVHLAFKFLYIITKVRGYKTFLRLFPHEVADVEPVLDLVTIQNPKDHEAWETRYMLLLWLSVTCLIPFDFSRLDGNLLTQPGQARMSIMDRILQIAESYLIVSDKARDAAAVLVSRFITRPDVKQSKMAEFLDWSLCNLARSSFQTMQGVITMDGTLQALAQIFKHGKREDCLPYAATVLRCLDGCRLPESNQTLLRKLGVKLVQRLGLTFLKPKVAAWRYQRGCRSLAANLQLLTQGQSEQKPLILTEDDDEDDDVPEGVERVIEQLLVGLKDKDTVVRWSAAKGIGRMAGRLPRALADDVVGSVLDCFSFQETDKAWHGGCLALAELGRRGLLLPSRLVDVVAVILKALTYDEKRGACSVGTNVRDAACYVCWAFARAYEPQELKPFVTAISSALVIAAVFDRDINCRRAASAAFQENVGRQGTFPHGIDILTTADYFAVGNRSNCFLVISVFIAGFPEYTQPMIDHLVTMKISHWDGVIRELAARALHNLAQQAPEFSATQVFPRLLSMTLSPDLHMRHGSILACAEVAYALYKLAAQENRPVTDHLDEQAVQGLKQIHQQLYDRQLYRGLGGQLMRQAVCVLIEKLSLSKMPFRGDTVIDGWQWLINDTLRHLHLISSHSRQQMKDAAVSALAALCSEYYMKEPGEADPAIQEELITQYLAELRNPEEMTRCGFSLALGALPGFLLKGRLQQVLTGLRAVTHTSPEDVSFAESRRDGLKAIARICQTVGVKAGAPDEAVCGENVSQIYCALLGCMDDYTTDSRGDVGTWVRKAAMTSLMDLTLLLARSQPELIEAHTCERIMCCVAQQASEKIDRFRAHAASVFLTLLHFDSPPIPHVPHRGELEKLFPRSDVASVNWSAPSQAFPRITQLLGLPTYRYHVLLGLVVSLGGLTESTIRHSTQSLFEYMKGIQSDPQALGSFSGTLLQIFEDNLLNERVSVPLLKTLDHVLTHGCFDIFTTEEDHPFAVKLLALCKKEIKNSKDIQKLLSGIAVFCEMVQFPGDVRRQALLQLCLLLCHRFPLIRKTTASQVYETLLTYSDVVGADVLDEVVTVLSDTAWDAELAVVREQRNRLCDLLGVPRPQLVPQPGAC
UniProt Q96EI5, sequence (Q96EI5 whole entry): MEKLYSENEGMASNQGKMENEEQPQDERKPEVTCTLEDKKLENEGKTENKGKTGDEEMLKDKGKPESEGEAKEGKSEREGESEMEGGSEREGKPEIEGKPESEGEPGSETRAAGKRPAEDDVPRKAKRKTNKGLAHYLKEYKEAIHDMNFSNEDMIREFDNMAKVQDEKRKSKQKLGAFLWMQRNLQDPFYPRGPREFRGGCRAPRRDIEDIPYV
UniProt Q9NZ01, sequence (Q9NZ01 whole entry): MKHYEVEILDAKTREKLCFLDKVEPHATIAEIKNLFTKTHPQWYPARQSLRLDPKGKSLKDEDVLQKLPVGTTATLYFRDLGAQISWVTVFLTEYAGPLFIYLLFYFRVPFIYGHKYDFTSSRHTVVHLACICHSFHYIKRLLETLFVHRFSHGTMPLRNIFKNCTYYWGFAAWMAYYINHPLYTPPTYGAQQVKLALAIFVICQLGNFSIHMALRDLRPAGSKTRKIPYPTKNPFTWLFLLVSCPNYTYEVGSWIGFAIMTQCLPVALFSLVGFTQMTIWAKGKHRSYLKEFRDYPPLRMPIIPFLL
UniProt Q13428, sequence (Q13428 whole entry): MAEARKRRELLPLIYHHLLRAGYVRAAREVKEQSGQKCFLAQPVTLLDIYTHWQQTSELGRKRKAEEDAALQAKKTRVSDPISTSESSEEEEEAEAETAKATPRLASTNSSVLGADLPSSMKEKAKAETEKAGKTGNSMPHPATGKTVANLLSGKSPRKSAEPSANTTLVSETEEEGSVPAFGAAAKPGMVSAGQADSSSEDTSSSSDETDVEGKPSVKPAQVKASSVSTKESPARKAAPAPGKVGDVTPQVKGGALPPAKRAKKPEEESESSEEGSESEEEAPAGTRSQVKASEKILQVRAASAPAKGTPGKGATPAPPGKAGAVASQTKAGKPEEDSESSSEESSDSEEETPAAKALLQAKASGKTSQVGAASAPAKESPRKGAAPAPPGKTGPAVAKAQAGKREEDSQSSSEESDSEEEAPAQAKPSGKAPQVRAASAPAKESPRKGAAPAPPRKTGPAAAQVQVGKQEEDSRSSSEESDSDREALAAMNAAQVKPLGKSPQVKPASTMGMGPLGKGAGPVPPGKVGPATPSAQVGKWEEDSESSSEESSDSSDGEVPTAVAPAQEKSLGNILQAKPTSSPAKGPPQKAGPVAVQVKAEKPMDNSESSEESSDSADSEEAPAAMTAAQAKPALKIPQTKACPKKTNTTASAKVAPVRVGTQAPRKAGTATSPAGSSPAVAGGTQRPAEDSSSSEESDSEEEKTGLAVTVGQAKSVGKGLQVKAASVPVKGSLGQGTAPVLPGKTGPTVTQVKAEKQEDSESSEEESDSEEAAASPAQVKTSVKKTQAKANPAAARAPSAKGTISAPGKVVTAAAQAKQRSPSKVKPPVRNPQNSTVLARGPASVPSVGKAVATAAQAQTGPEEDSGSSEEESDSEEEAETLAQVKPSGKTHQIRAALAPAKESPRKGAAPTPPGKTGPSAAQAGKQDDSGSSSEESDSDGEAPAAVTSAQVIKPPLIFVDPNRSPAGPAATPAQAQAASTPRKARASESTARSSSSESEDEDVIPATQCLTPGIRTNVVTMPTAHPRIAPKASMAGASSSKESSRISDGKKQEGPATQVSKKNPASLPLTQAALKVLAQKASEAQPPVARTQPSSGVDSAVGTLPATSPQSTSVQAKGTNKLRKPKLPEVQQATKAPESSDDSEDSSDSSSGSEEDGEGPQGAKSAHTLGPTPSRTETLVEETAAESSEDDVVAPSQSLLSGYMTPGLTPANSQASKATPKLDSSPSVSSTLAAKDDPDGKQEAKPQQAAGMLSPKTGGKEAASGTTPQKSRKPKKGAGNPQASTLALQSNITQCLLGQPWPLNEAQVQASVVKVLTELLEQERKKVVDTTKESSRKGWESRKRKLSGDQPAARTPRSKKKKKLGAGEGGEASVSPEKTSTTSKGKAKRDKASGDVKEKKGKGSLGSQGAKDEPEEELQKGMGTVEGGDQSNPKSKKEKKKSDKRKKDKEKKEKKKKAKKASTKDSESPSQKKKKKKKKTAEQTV
UniProt Q15369, sequence (Q15369 whole entry): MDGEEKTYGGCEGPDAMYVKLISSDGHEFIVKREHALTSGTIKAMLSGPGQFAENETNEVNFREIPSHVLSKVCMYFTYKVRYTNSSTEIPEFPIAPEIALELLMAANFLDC

In the case of TBCC (UniProt Q15814), the values for the thermal stability z-score in the test with lipoamide (setting [1]), with lipoamide (arsenate co-treatment: none) and in the test with potassium arsenate were -0.35, -0.196 and -0.00724, respectively.

In the case of TBCD (UniProt Q9BTW9), the thermal stability z-score was -0.558 with lipoamide (setting [1]), -0.301 in the test with lipoamide (arsenate co-treatment: none) and 0.705 with potassium arsenate.

On to TBCE (UniProt Q15813), for which the figures for the thermal stability z-score with lipoamide (setting [1]), with lipoamide (arsenate co-treatment: none) and with potassium arsenate were -0.969, -0.354 and -0.0811, respectively.

With TBCEL (UniProt Q5QJ74), the thermal stability z-score was -0.202 with lipoamide (setting [1]), -0.0108 in the test with lipoamide (arsenate co-treatment: none) and 0.0212 with potassium arsenate.

As to TBCK (UniProt Q8TEA7), the thermal stability z-score with lipoamide (setting [1]) is 0.135; with lipoamide (arsenate co-treatment: none), 0.0192; with potassium arsenate it was -0.192.

Turning to TBK1 (UniProt Q9UHD2), the thermal stability z-score with lipoamide (setting [1]) was -0.607; with lipoamide (arsenate co-treatment: none), -0.189; in the test with potassium arsenate it was -0.00763.

With TBL1X (UniProt O60907), the results for the thermal stability z-score in the test with lipoamide (setting [1]), in the test with lipoamide (arsenate co-treatment: none) and with potassium arsenate were 0.835, -0.0254 and 0.341, respectively.

Consider TBL1XR1 (UniProt Q9BZK7), for which the thermal stability z-score was 1.11 in the test with lipoamide (setting [1]), 0.307 with lipoamide (arsenate co-treatment: none) and -0.746 with potassium arsenate.

As for TBL2 (UniProt Q9Y4P3), the results for the thermal stability z-score in the test with lipoamide (setting [1]), in the test with lipoamide (arsenate co-treatment: none) and with potassium arsenate were -0.257, 0.0669 and 0.366, respectively.

Turning to TBL3 (UniProt Q12788), the values for the thermal stability z-score with lipoamide (setting [1]), in the test with lipoamide (arsenate co-treatment: none) and with potassium arsenate were 0.0946, -0.105 and -0.338, respectively.

As to TBRG4 (UniProt Q969Z0), the thermal stability z-score with lipoamide (setting [1]) is -0.625; in the test with lipoamide (arsenate co-treatment: none), -0.116; with potassium arsenate, 0.462.

With TBX3 (UniProt O15119), the thermal stability z-score with lipoamide (setting [1]) is 0.163; with lipoamide (arsenate co-treatment: none), -0.0268; with potassium arsenate, 0.206.

With TCAF1 (UniProt Q9Y4C2), the thermal stability z-score was 0.246 with lipoamide (setting [1]), 0.355 with lipoamide (arsenate co-treatment: none) and 0.396 in the test with potassium arsenate.

With TCEA1 (UniProt P23193), the thermal stability z-score with lipoamide (setting [1]) was 0.138; in the test with lipoamide (arsenate co-treatment: none), 0.297; with potassium arsenate, -0.117.

Turning to TCEAL1 (UniProt Q15170), the thermal stability z-score is 0.347 in the test with lipoamide (setting [1]), 0.809 with lipoamide (arsenate co-treatment: none) and 0.192 with potassium arsenate.

As for TCEAL4 (UniProt Q96EI5), the thermal stability z-score with lipoamide (setting [1]) was 0.347; with lipoamide (arsenate co-treatment: none), 0.201; with potassium arsenate, -0.306.

TCEB1 (UniProt Q15369): the thermal stability z-score with lipoamide (setting [1]) is -0.0847; with lipoamide (arsenate co-treatment: none), -0.122; in the test with potassium arsenate, -0.0354.

For the target TCEB2 (UniProt Q15370), the thermal stability z-score with lipoamide (setting [1]) was found to be 0.764; in the test with lipoamide (arsenate co-treatment: none), 0.455; with potassium arsenate, 0.154.

Consider TCEB3 (UniProt Q14241), for which the figures for the thermal stability z-score in the test with lipoamide (setting [1]), in the test with lipoamide (arsenate co-treatment: none) and with potassium arsenate were -0.0069, 0.00902 and 0.0043, respectively.

For TCERG1 (UniProt O14776), the thermal stability z-score was 0.7 with lipoamide (setting [1]), 0.361 with lipoamide (arsenate co-treatment: none) and -0.0887 with potassium arsenate.

For the target TCF3 (UniProt P15923), the thermal stability z-score with lipoamide (setting [1]) is -0.098; with lipoamide (arsenate co-treatment: none) it was -0.0941; in the test with potassium arsenate it was -0.203.

As for TCF12 (UniProt Q99081), the thermal stability z-score with lipoamide (setting [1]) was -0.124; in the test with lipoamide (arsenate co-treatment: none), -0.0813; with potassium arsenate, -0.203.

Regarding TCF25 (UniProt Q9BQ70), the thermal stability z-score is -0.802 with lipoamide (setting [1]), -0.429 in the test with lipoamide (arsenate co-treatment: none) and -0.542 in the test with potassium arsenate.

As to TCOF1 (UniProt Q13428), the figures for the thermal stability z-score in the test with lipoamide (setting [1]), with lipoamide (arsenate co-treatment: none) and with potassium arsenate were 0.957, 0.648 and 0.157, respectively.

With TCP1 (UniProt P17987), the thermal stability z-score with lipoamide (setting [1]) was -0.0358; with lipoamide (arsenate co-treatment: none), -0.0779; with potassium arsenate, -0.229.

TCP11L1 (UniProt Q9NUJ3): the values for the thermal stability z-score in the test with lipoamide (setting [1]), in the test with lipoamide (arsenate co-treatment: none) and with potassium arsenate were -0.328, 0.00441 and 0.586, respectively.

Turning to TDG (UniProt Q13569), the thermal stability z-score with lipoamide (setting [1]) is -0.0217; with lipoamide (arsenate co-treatment: none) it was -0.0438; with potassium arsenate, -0.322.

Consider TDP1 (UniProt Q9NUW8), for which the values for the thermal stability z-score in the test with lipoamide (setting [1]), in the test with lipoamide (arsenate co-treatment: none) and with potassium arsenate were 0.0423, -0.0239 and -0.00328, respectively.

As for TDP2 (UniProt O95551), the thermal stability z-score was 0.0323 with lipoamide (setting [1]), -0.0541 with lipoamide (arsenate co-treatment: none) and 0.242 with potassium arsenate.

TDRD3 (UniProt Q9H7E2): the values for the thermal stability z-score with lipoamide (setting [1]), with lipoamide (arsenate co-treatment: none) and in the test with potassium arsenate were -0.448, 0.0394 and -0.796, respectively.

In the case of TEAD1 (UniProt P28347), the thermal stability z-score is 0.133 with lipoamide (setting [1]), 0.196 with lipoamide (arsenate co-treatment: none) and -0.00363 with potassium arsenate.

Consider TECR (UniProt Q9NZ01), for which the thermal stability z-score was -1.46 with lipoamide (setting [1]), -0.891 with lipoamide (arsenate co-treatment: none) and -0.077 with potassium arsenate.

As for TEFM (UniProt Q96QE5), the thermal stability z-score with lipoamide (setting [1]) stood at 0.0966; with lipoamide (arsenate co-treatment: none), 0.0631; with potassium arsenate, 0.106.

Regarding TELO2 (UniProt Q9Y4R8), the results for the thermal stability z-score with lipoamide (setting [1]), with lipoamide (arsenate co-treatment: none) and in the test with potassium arsenate were -0.413, -0.306 and 0.208, respectively.

For the target TENM3 (UniProt Q9P273), the thermal stability z-score in the test with lipoamide (setting [1]) was 0.179; with lipoamide (arsenate co-treatment: none), -0.452; with potassium arsenate, -0.147.

Regarding TERF2 (UniProt Q15554), the thermal stability z-score is -0.0516 with lipoamide (setting [1]), -0.042 in the test with lipoamide (arsenate co-treatment: none) and 0.1 with potassium arsenate.

Regarding TERF2IP (UniProt Q9NYB0), the thermal stability z-score was -0.302 in the test with lipoamide (setting [1]), 0.33 in the test with lipoamide (arsenate co-treatment: none) and -0.131 with potassium arsenate.

For TES (UniProt Q9UGI8), the thermal stability z-score with lipoamide (setting [1]) is 0.0136; with lipoamide (arsenate co-treatment: none) it was -0.287; in the test with potassium arsenate it was -4.89.

Turning to TESC (UniProt Q96BS2), the thermal stability z-score is 0.565 with lipoamide (setting [1]), 0.315 with lipoamide (arsenate co-treatment: none) and 0.846 with potassium arsenate.

As for TEX2 (UniProt Q8IWB9), the thermal stability z-score in the test with lipoamide (setting [1]) is 0.11; with lipoamide (arsenate co-treatment: none) it was -0.0212; with potassium arsenate it was 0.0716.

TEX30 (UniProt Q5JUR7): the thermal stability z-score was 0.373 in the test with lipoamide (setting [1]), -0.174 with lipoamide (arsenate co-treatment: none) and -0.411 with potassium arsenate.

As for TEX264 (UniProt Q9Y6I9), the thermal stability z-score is -0.151 with lipoamide (setting [1]), -0.929 with lipoamide (arsenate co-treatment: none) and -0.568 with potassium arsenate.

On to TFAM (UniProt Q00059), for which the figures for the thermal stability z-score with lipoamide (setting [1]), with lipoamide (arsenate co-treatment: none) and with potassium arsenate were -0.198, -0.126 and -0.121, respectively.
